{"source": "patent US20200404921A1", "about": "“SOIL TREATMENT WITH METAM SALTS AND ONE OR MORE OF CALCIUM THIOSULFATE, CALCIUM CHLORIDE AND CALCIUM NITRATE” (Tessenderlo Kerley, Inc., priority 2018, published 2020)", "origin": "cited, not measured here", "key": {"[1]": {"conditions": "more soluble than gypsum"}, "[2]": {"system": "soilborne disease", "conditions": "about 40 gallons of metam sodium per acre (190 Kg of active ingredient/ha), commercial conditions"}}, "data": [{"smiles": "O=S([O-])([O-])=S.[Ca+2]", "note": "[calcium thiosulfate]", "values": [{"measurement": "solubility relative to gypsum", "setting": "[1]", "value": 125, "unit": "times"}]}, {"smiles": "CNC(=S)S", "note": "[metam sodium, sodium methyldithiocarbamate]", "values": [{"measurement": "reduction of certain soilborne disease", "setting": "[2]", "value": "~70", "unit": "%"}]}]}
